Experimental data as given in patent publication US8293764B2, “Compositions and methods for disruption of BRCA2-Rad51 interaction” (The Regents of the University of California, priority 2004, dated 2012).
Entries after “also recorded” stand apart in the source; their conditions may differ.

Legend:
[1] = tested on: IR-induced Rad51 foci in MCF-7 breast cancer cells; test: IR-induced Rad51 foci formation (immunostaining); assay type: cell-based; settings: MCF-7 cells
Protocol: These compounds were then tested for their effects on IR-induced Rad51 foci formation in MCF-7 breast cancer cells.

[2] = molecular target: T1, Rad51 multimers (Homo sapiens, UniProt Q06609); test: Gel filtration of Rad51 multimers; assay type: biochemical; settings: Rad51:compound molar ratio 1:10
T1 sequence (Q06609 1-339): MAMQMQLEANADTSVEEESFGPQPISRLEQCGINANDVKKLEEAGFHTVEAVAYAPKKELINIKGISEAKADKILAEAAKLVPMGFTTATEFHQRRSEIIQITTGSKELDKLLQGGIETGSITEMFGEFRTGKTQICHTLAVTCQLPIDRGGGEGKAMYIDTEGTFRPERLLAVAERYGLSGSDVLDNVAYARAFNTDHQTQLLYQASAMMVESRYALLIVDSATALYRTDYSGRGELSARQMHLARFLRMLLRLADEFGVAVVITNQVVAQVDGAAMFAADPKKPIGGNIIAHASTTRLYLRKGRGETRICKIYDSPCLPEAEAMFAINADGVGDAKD
Source text: If the IBR compound indeed occupies the hydrophobic pocket for the entrance of Phe1524 in BRCA2, the oligomerization of Rad51 should also be affected since they share the same binding region. […] Therefore, if IBR2 mimics the BRC hairpin structure, the Rad51 multimerization will also be inhibited by IBR2. We compared the gel filtration profile of Rad51 between with and without IBR2. […] The inhibition of the Rad51 and BRC repeat binding was further analyzed by SPR technology in a solution competition format as previously described (see e.g., Science 303, 844-848).
Gel filtration: A mixture of Rad51 (3.2 μg) and small compound (molar ratio 1:10) was incubated for 15 minutes at 37° C., supplemented with buffer (50 mM triethanolamine-HCl [pH 7.5], 0.5 mM Mg (OAc)2, 1 mM dithiothreitol, 2 mM ATP, and 100 μg/ml BSA, total volume 20 μl) and incubated 15 more minutes. Then the mixture was loaded onto 2.4 ml Superdex 200 PC 3.2/30 columns (Pharmacia) equilibrated with the same buffer as described (Davies et al., 2001). Fractions (50 μl) were collected and 0.5 μl of each fraction was blotted onto PVDF membrane. Rad51 was detected using anti-Rad51 antibody (mAb 14B4).

[3] = tested on: breast cancer cells (MDA-MB-468, MDA-MB-435, MCF-7, T47D); test: MTT assay; assay type: cell-based
Protocol: The inventors examined the effects of IBR2 on the growth and viability of a panel of breast cancer cell lines. Five exponentially growing breast cancer cell lines (MDA-MB-231, MCF-7, MDA-MB-468, SKBR3 and MDA-MB-435) were incubated with IBR2 at various concentrations (0, 5, 10 and 20 μM) for various periods of time (1, 2, 3, 4 and 5 days). The viable cell numbers were then counted by trypan blue exclusion assay. […] We also examined the effects of IBR2 on the growth and viability of cultured breast cancer cells (MDA-MB-468, MDA-MB-435, MCF-7, T47D) using the 3-(4,5-dimethylthiazol-2-yl)-2,5-diphenyltetrazolium bromide (MTT) assay.
Cell proliferation assay and clonogenic survival assays: To obtain cell growth curves, 1×10^4 cells were seeded in 12-well plate for 24 hours. Cells were then treated, in duplicate, with various concentrations of IBR2 in the presence of 0.4% DMSO. The viable cells were counted by trypan blue exclusion assay daily. MTT assay was performed as previously described (Alley et al., 1988).

[4] = tested on: human breast cancer xenograft (MDA-MB-468); test: Tumor inhibition assay in nude mice; assay type: in vivo
Protocol: To test the inhibitory effect of IBR2 on the growth of established tumor xenografts in nude mice, we chose the human breast cancer cell line MDA-MB-468 for this study. Mice with tumor size of approximately 85 mm3 were treated with three doses of IBR2 (10, 50 and 150 mg/kg i.p.) every other day for up to five weeks.
Tumor inhibition assay in nude mice: 5×10^6 MDA-MB-468 cells in 100 μl of PBS were injected into mammary fat pad of 6-8 week old athymic female BALB/c-nude mice (nu/nu) (Charles River Laboratories). After tumors grew to 85 mm^3 (day 12), mice were randomized into four groups (n=5 per group) to receive intraperitoneal injection of IBR2 (10, 50, or 150 mg/kg) or vehicle (15% DMSO, 20% Tween 20, 10% PEG400, 55% saline) every other day for 5 weeks. Body weights of mice and tumor volumes were measured twice weekly during the course of drug treatment. A Student's t test was used to determine P value.

[5] = tested on: BRCA2-/-:p53-/-, BRCA1-/-:p53-/- and p53-/- MEFs; test: Sensitivity of isogenic MEFs to IBR2; assay type: cell-based; settings: compared with BRCA1-/-:p53-/- and p53-/- MEFs
Source text: Next, the inventors examined the sensitivity to IBR2 treatment of isogenic MEFs with genotypes of BRCA2−/−:p53−/−, BRCA1−/−:p53−/− and p53−/−.

[6] = tested on: g-H2AX foci in MCF-7 cells; test: IR-induced g-H2AX foci formation (immunostaining); assay type: cell-based; settings: 20 μM IBR2, 20 Gy
Protocol: Since interaction between BRCA2 and Rad51 appears to be crucial for the formation of IR-induced Rad51 foci, it was contemplated that IBR2 may mimic BRC repeats to disrupt the BRCA2-Rad51 interaction and to thereby diminish the IR-induced Rad51 foci formation. To test this possibility, the number of the MCF-7 cells that formed IR-induced Rad51 foci was measured after IBR2 treatment. […] To test whether this effect applies to other molecules involved in DSB repair, the inventors then examined the IR-induced foci formation of g-H2AX, which is histone H2AX phosphorylated at serine 139 by ATM for the recruitment of NBS1, 53BP and BRCA1, but not Rad51.
Immunostaining Rad51 and g-H2AX foci: MCF-7 cells were treated with 20 μM IBR2 for 7 or 19 hours and then g-irradiated at 20 Gy. Cells were incubated for an additional 5 hours with 20 μM IBR2, then fixed with 4% paraformaldehyde in PBS containing 0.5% Triton X-100. The fixed cells were incubated with a-Rad51 antibody (mAb 1F5) or a-g-H2AX antibody (Upstate). Rad51 and g-H2AX foci positive cells were subsequently counted as described (Chen et al., 1999).

O=S(=O)(Cc1ccccc1)N1C=Cc2ccccc2C1c1c[nH]c2ccccc12 (stereo not drawn) [IBR2, 2-(benzylsulfonyl)-1-(1H-indol-3-yl)-1,2-dihydroisoquinoline]
IR-induced Rad51 foci formation [1]: dramatically reduced Rad51 foci formation; also recorded: significantly reduced IR-induced Rad51 foci formation | Rad51 multimerization (gel filtration elution profile) [2]: dissociates Rad51 multimers | IC50 [3]: ~10 µM | average body weights of nude mice ([4]; 10, 50 and 150 mg/kg i.p.): remained almost constant | toxicity to animals ([4]; 10, 50 and 150 mg/kg i.p.): without apparent toxicity to animals | retardation of tumor growth ([4]; 10, 50 and 150 mg/kg i.p. every other day up to five weeks, vs vehicle): up to 65% | tumorigenicity in nude mice ([4]; mouse, in vivo): significantly reduced tumorigenicity in nude mice | sensitivity of BRCA2-/-:p53-/- MEFs to IBR2 [5]: most sensitive | IR-induced g-H2AX foci formation [6]: no effect on g-H2AX foci formation
